Reference: ChEMBL document CHEMBL5143653, “4'-Nitrobiphenyl thioglucoside as the Smallest, fluorescent photosensitizer with cancer targeting ligand” (Bioorg Med Chem, 2022)

Key:
[1] = Drug uptake in human PC-3 cells at 150 uM incubated under irradiation at 405 nm by confocal laser scan fluorescence microscopy; format: ADME, cell-based; conditions: pc-3, 150 µM
[2] = tested on: PC-3; experiment: Dark toxicity in human PC-3 cells assessed as reduction in cell viability at 300 uM incubated under dark for 2 hrs by MTT assay; format: cell-based; conditions: pc-3, 2 h
[3] = Drug uptake in human PC-3 cells at 150 uM incubated under irradiation at 405 nm in presence of up top 25 mM glucose by confocal laser scan fluorescence microscopy; format: ADME, cell-based; conditions: pc-3, 150 µM
[4] = Drug uptake in human PC-3 cells at 150 uM incubated under irradiation at 405 nm in presence of cytochalasin B by confocal laser scan fluorescence microscopy; format: ADME, cell-based; conditions: pc-3, 150 µM
[5] = Photodynamic cytotoxicity in human PC-3 cells assessed as reduction in cell viability under 405 nm irradiation exposure measured after 2 hrs by MTT assay; format: toxicity, cell-based
[6] = tested on: PC-3; experiment: Dark toxicity in human PC-3 cells assessed as reduction in cell viability at 150 uM incubated under dark for 2 hrs by MTT assay; format: cell-based; conditions: pc-3, 2 h

| Compound | Drug uptake [1] | Activity [2] | Drug uptake [3] | Drug uptake [4] | IC50 at 2 h [5] [µM] | Activity [6] |
| --- | --- | --- | --- | --- | --- | --- |
| O=[N+]([O-])c1ccc(-c2ccc(S[C@@H]3O[C@H](CO)[C@H](O)[C@H](O)[C@H]3O)cc2)cc1 | Active | Toxic | Active | Active | 120 | – |
| O=[N+]([O-])c1ccc(-c2ccc(OCCCO[C@@H]3O[C@H](CO)[C@@H](O)[C@H](O)[C@H]3O)cc2)cc1 | – | – | – | – | – | Toxic |
| O=[N+]([O-])c1ccc(-c2ccc(OCCCS[C@@H]3O[C@H](CO)[C@@H](O)[C@H](O)[C@H]3O)cc2)cc1 | – | – | – | – | – | Toxic |
| O=[N+]([O-])c1ccc(-c2ccc(S[C@H]3O[C@H](CO)[C@@H](O)[C@H](O)[C@@H]3O)cc2)cc1 | Active | Toxic | – | – | 150 | – |
| O=[N+]([O-])c1ccc(-c2ccc(O[C@@H]3O[C@H](CO)[C@@H](O)[C@H](O)[C@H]3O)cc2)cc1 | – | – | – | – | – | Non-Toxic |
| O=[N+]([O-])c1ccc(-c2ccc(S[C@@H]3O[C@H](CO)[C@@H](O)[C@H](O)[C@H]3O)cc2)cc1 | Active | Non-Toxic | – | – | 250 | Non-Toxic |
| O=[N+]([O-])c1ccc(-c2ccc(SCCCO[C@@H]3O[C@H](CO)[C@@H](O)[C@H](O)[C@H]3O)cc2)cc1 | – | – | – | – | – | Toxic |
